According to US20250195525A1, “ANGIOTENSIN II RECEPTOR ANTAGONIST FOR THE PREVENTION OF SYSTEMIC DISEASES IN CATS” (Boehringer Ingelheim Vetmedica GmbH, priority 2023, published 2025):

Columns and labels:
[1] = cat, in vivo
cats with CKD = assay: placebo controlled field trial in client-owned cats with CKD: progression of SBP; assay type: in vivo, cat; settings: 1 mg/kg body weight
Procedure: This prospective, placebo controlled, randomized, double-blind, multicenter, multinational field study enrolled client-owned cats that were presented in the normal course of veterinary practice to evaluate safety and efficacy of telmisartan on progression-free survival time in cats with CKD compared to placebo. In this study 545 cats were randomly assigned to telmisartan (1 mg/kg body weight) or placebo in a ratio of 1:1.
At least two weeks before the start of the field study, creatinine value and Urine Specific Gravity (USG) were determined. Only cats were included in the study which were diagnosed with CKD, meaning a creatinine value ≥1.9 mg/dl (168 μmol/L) and <5.0 mg/dL (440 μmol/L) and a USG of <1.035.
At all visit timepoints, SBP was recorded prior to performing any other procedures scheduled for the animal during the visit. • 5 SBP readings were taken following a ≥10 minute acclimation period. • The highest and the lowest SBP were excluded and a mean of the remaining 3 SBPs was used to obtain the mean SBP for that visit. Visits were scheduled on Day 0, 30, 90, 180, 270, 365, 450, 540, 630, 730, 810, 900, 990, 1080, 1170, 1260, 1350, 1440 (each ±7) and, if applicable, additional visits every 3 months (+7 days).

[2] = human patients, high dose of 160 mg daily (80 mg twice daily); cited from earlier work
[3] = tested on: angiotensin II receptor 1; assay: Angiotensin II induced blood pressure response in laboratory cats; assay type: in vivo, cat
Description: Moreover, a study in laboratory cats was established to investigate the Angiotensin II induced increase in diastolic blood pressure prior to and after administration of telmisartan. This test was established to estimate the potency as well as the duration of action of sartans, in particular of telmisartan in cats.

mean V/f oral (second mention, after the intravenous values) [1]: 8.8 L/kg | mean V/f oral ([1]; po): 20.4 L/kg | AUC (in vivo; iv): 385 ng·h/mL | AUC (in vivo; po): 150 ng·h/mL
SMILES: CCCc1nc2c(C)cc(-c3nc4ccccc4n3C)cc2n1Cc1ccc(-c2ccccc2C(=O)O)cc1 [Telmisartan, 4′-[2-n-propyl-4-methyl-6-(1-methylbenzimidazol-2-yl)-benzimidazol-1-ylmethyl]-biphenyl-2-carboxylic acid]
Time to event for progression of SBP (up to 160 mmHg), median no. of days (cats with CKD): 446.0 days | delay in reaching the endpoint of SBP of 160 mmHg versus placebo (median number of days) (cats with CKD; compared to placebo): 84.5 days | Mean probability for progression of SBP (cats with CKD; progression = SBP ≥160 mmHg and increase of >20 mmHg compared to baseline): 0.035 | plasma level (Cmax±SD) [2]: about 2800±2400 ng/ml | inhibition of the blood pressure response ([3]; cats, doses of less than 0.05 mg per kg body weight, majority of the tested cats): about 75% | diastolic blood pressure responses to increasing intravenous doses of Angiotensin II ([3]; laboratory cats, approximately 24 hours after the last oral dosing, target dose compared with Placebo): significantly reduced
